Measurements from patent publication US20060063784A1, “Method of using substituted pyrazolo [1,5-a] pyrimidines” (priority 2004, published 2006).
pIC50: −log10 of the molar value.

Tested on: 80S14 (p21-deficient) cells
Assay: Cytotoxicity assay using isogenic cell lines: IC50 in 80S14 (p21-deficient) cells, SRB
Assay type: cell-based, human
Conditions: 80S14 p21-deficient cells, 5 days incubation, SRB; read-out: IC50 for 80SI4
Outline: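 80S14 (p21-deficient) cells seeded at 12,000 cells/well overnight, then exposed 5 days at 37 °C to serial dilutions (5 pM–50 μM or 170 pg/ml–10 μg/ml). TCA-fixed, sulforhodamine B-stained, absorbance at 560 nm; IC50 taken from cytotoxicity curves versus untreated controls.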

SMILES	pIC50
CC(C)[C@H](N)C(=O)Nc1cccc(-c2ccnc3c(C(=O)c4cccs4)cnn23)c1 [Example 83, N-1-{3-[3-(thien-2-ylcarbonyl)pyrazolo[1,5-a]pyrimidin-7-yl]phenyl}-L-valinamide]	5.00 to 6.00
C=C(C)OC(=O)Nc1cccc(-c2ccnc3c(C(=O)c4cccs4)cnn23)c1 [Example 21]	> 6.00
CCC(C)C(=O)Nc1cccc(-c2ccnc3c(C(=O)c4cccs4)cnn23)c1 (stereo not drawn) [Example 145]	> 6.00
CCCCCC(=O)Nc1cccc(-c2ccnc3c(C(=O)c4cccs4)cnn23)c1 [Example 153]	> 6.00
C/C=C/C(=O)Nc1cccc(-c2ccnc3c(C(=O)c4cccs4)cnn23)c1 [Example 149, (2E)-N-{3-[3-(thien-2-ylcarbonvl)pyrazolo[1,5-a]pyrimidin-7-yl]phenyl}but-2-enamide]	5.00 to 6.00
O=C(CNC(=O)C12CC3CC(CC(C3)C1)C2)Nc1cccc(-c2ccnc3c(C(=O)c4cccs4)cnn23)c1 [Example 134, N-[2-oxo-2-({3-[3-(thien-2-ylcarbonyl)pyrazolo[1,5-a]pyrimidin-7-yl]phenyl}amino)ethyl]adamantine-1-carboxamide]	5.00 to 6.00

Same assay, conditions: Homo sapiens, 80S14, 120 h, read-out: IC50 for 80S14 (uM)

SMILES	IC50 [µM]
Cc1ccc(-c2ccnc3c(C(=O)c4cccs4)cnn23)cc1NC(=O)CC(C)C [Example 310, 3-Methyl-N-{2-methyl-5-[3-(2-thienylcarbonyl)pyrazolo[1,5-a]pyrimidin-7-yl]phenyl}butanamide]	1 to 10

Same assay, conditions: Homo sapiens, 120 h; 80S14 (p21-deficient) cells, 5 days, SRB; class symbols; read-out: IC50 for 80S14

SMILES	pIC50
CCC(C)CNc1cccc(-c2ccnc3c(C(=O)c4cccs4)cnn23)c1 (stereo not drawn) [Example 402, (7-{3-[(2-Methylbutyl)amino]phenyl}pyrazolo[1,5-a]pyrimidin-3-yl)(thien-2-yl)methanone]	5.00 to 6.00
CC(CCNc1cccc(-c2ccnc3c(C(=O)c4cccs4)cnn23)c1)c1ccccc1 (stereo not drawn) [Example 400, (7-{3-[(3-Phenylbutyl)amino]phenyl}pyrazolo[1,5-a]pyrimidin-3-yl)(thien-2-yl)methanone]	5.00 to 6.00
CNc1cccc(-c2ccnc3c(C(=O)c4ccccc4)cnn23)c1 [Example 231, [7-[3-(Methylamino)phenyl]pyrazolo[1,5-a]-pyrimidin-3-yl}phenyl-methanone]	4.30 to 5.00
CC(C)CC(=O)Nc1cccc(-c2ccnc3c(Br)cnn23)c1 [Example 330, N-[3-(3-Bromopyrazolo[1,5-a]pyrimidin-7-yl)phenyl]-3-methylbutanamide]	4.30 to 5.00
CN(C(=O)C1CCC1)c1cccc(-c2ccnc3c(C#N)cnn23)c1 [Example 234, N-[3-(3-Cyanopyrazolo[1,5-a]-pyrimidin-7-yl)phenyl]-N-methyl-cyclobutanecarboxamide]	5.00 to 6.00
O=C(Nc1cccc(-c2ccnc3c(C(=O)c4cccs4)cnn23)c1)c1cccc(Br)c1 [Example 286, 3-Bromo-N-{3-[3-(2-thienylcarbonyl)pyrazolo[1,5-a]pyrimidin-7-yl]phenyl}benzamide]	> 6.00
COc1ccc(-c2ccnc3c(C(=O)c4cccs4)cnn23)cc1NC(=O)c1ccccc1 [Example 315, N-{2-Methoxy-5-[3-(2-thienylcarbonyl)pyrazolo[1,5-a]pyrimidin-7-yl]phenyl}benzamide]	5.00 to 6.00
COc1cc(/C=C/CNc2cccc(-c3ccnc4c(C(=O)c5cccs5)cnn34)c2)ccc1O [Example 401, [7-(3-{[(2E)-3-(4-Hydroxy-3-methoxyphenyl)prop-2-enyl]amino}phenyl)pyrazolo[1,5-a]pyrimidin-3-yl](thien-2-yl)methanone]	4.30 to 5.00
CC(C)CNC(=O)c1cccc(-c2ccnc3c(C(=O)c4cccs4)cnn23)c1 [Example 318, N-Isobutyl-3-[3-(2-thienylcarbonyl)pyrazolo[1,5-a]pyrimidin-7-yl]benzamide]	> 6.00
CN(C(=O)O)c1cccc(-c2ccnc3c(C(=O)c4cccs4)cnn23)c1 [Example 239, Methyl [3-[3-(2-thienylcarbonyl)pyrazolo-[1,5-a]pyrimidin-7-yl]phenyl}-carbamic acid]	5.00 to 6.00
CC(C)CNc1cccc(-c2ccnc3c(C(=O)c4cccs4)cnn23)c1 [Example 404, {7-[3-(Isobutylamino)phenyl]pyrazolo[1,5-a]pyrimidin-3-yl}(thien-2-yl)methanone]	5.00 to 6.00
CCN(C(=O)C1CC1)c1cccc(-c2ccnc3c(C#N)cnn23)c1 [Example 256, N-[3-(3-Cyanopyrazolo[1,5-a]pyrimidin-7-yl)phenyl]-N-ethyl-cyclopropanecarboxamide]	4.30 to 5.00
O=C(c1cccs1)c1cnn2c(-c3cccc(C(F)(F)F)c3)ccnc12 [Example 223, [7-(3-Trifluoromethylphenyl)pyrazolo[1,5-a]-pyrimidin-3-yl}-2-thienyl-methanone]	5.00 to 6.00
Nc1cccc(-c2ccnc3c(Br)cnn23)c1 [Example 326, 3-(3-Bromopyrazolo[1,5-a]pyrimidin-7-yl)aniline]	4.30 to 5.00
O=C(c1cccs1)c1cnn2c(-c3cccc(NC/C=C/c4ccccc4)c3)ccnc12 [Example 412, [7-(3-{[(2E)-3-Phenylprop-2-enyl]amino}phenyl)pyrazolo[1,5-a]pyrimidin-3-yl] (thien-2-yl)methanone]	4.30 to 5.00

Same assay, conditions: Homo sapiens, 120 h; 80S14 p21-deficient cells, 5 days incubation, SRB; read-out: IC50 for 80SI4

SMILES	pIC50
CCCCOC(=O)NCC(=O)Nc1cccc(-c2ccnc3c(C(=O)c4cccs4)cnn23)c1 [Example 116, butyl 2-oxo-2-({3-[3-(thien-2-ylcarbonyl)pyrazolo[1,5-a]pyrimidin-7-yl]phenyl}amino)ethylcarbamate]	> 6.00
C=CCCC(=O)Nc1cccc(-c2ccnc3c(C(=O)c4cccs4)cnn23)c1 [Example 57, N-{3-[3-(thien-2-ylcarbonyl)pyrazolo[1,5-a]pyrimidin-7-yl]phenyl}pent-4-enamide]	> 6.00
O=C(CC1CCCC1)Nc1cccc(-c2ccnc3c(C(=O)c4cccs4)cnn23)c1 [Example 73, 2-cyclopentyl-N-{3-[3-(thien-2-ylcarbonyl)pyrazolo[1,5-a]pyrimidin-7-yl]phenyl}acetamide]	> 6.00
Cc1cnc2c(C(=O)c3cccs3)cnn2c1-c1cccc(NC(=O)Cc2cccs2)c1 [Example 219, N-{3-[6-methyl-3-(thien-2-ylcarbonyl)pyrazolo[1,5-a]pyrimidin-7-yl]phenyl}-2-thien-2-ylacetamide]	4.30 to 5.00
CC(C)=CC(=O)Nc1cccc(-c2ccnc3c(C(=O)c4cccs4)cnn23)c1 [Example 45, 3-methyl-N-{3-[3-(thien-2-ylcarbonyl)pyrazolo[1,5-a]pyrimidin-7-yl]phenyl}but-2-enamide]	> 6.00
CN(C)S(=O)(=O)Nc1cccc(-c2ccnc3c(C(=O)c4cccs4)cnn23)c1 [Example 40, N,N-dimethyl-N′-{3-[3-(thien-2-ylcarbonyl)pyrazolo[1,5-a]pyrimidin-7-yl]phenyl}sulfamide]	5.00 to 6.00
CCCOC(=O)NCC(=O)Nc1cccc(-c2ccnc3c(C(=O)c4cccs4)cnn23)c1 [Example 114, propyl 2-oxo-2-({3-[3-(thien-2-ylcarbonyl)pyrazolo[1,5-a]pyrimidin-7-yl]phenyl}amino)ethylcarbamate]	4.30 to 5.00
CC(OC(=O)Nc1cccc(-c2ccnc3c(C(=O)c4cccs4)cnn23)c1)C1CC1 (stereo not drawn) [Example 190, 1-cyclopropylethyl 3-[3-(thien-2-ylcarbonyl)pyrazolo[1,5-a]pyrimidin-7-yl]phenylcarbamate]	> 6.00
COc1ccc(CC(=O)Nc2cccc(-c3ccnc4c(C(=O)c5cccs5)cnn34)c2)cc1 [Example 106, 2-(4-methoxyphenyl)-N-{3-[3-(thien-2-ylcarbonyl)pyrazolo[1,5-a]pyrimidin-7-yl]phenyl}acetamide]	> 6.00
CCOC(=O)CNC(=O)Nc1cccc(-c2ccnc3c(C(=O)c4cccs4)cnn23)c1 [Example 10, ethyl N-[({3-[3-(thien-2-ylcarbonyl)pyrazolo[1,5-a]pyrimidin-7-yl]phenyl}amino)carbonyl]glycinate]	4.30 to 5.00
CCOC(=O)C(=O)Nc1cccc(-c2ccnc3c(C(=O)c4cccs4)cnn23)c1 [Example 41, ethyl oxo({3-[3-(thien-2-ylcarbonyl)pyrazolo[1,5-a]pyrimidin-7-yl]phenyl}amino)acetate]	4.30 to 5.00
CC1(C(=O)Nc2cccc(-c3ccnc4c(C(=O)c5cccs5)cnn34)c2)CCCCC1 [Example 143, 1-methyl-N-{3-[3-(thien-2-ylcarbonyl)pyrazolo[1,5-a]pyrimidin-7-yl]phenyl}cyclohexanecarboxamide]	> 6.00
CC1CCC(OC(=O)Nc2cccc(-c3ccnc4c(C(=O)c5cccs5)cnn34)c2)C1 (stereo not drawn) [Example 188, 3-methylcyclopentyl 3-[3-(thien-2-ylcarbonyl)pyrazolo[1,5-a]pyrimidin-7-yl]phenylcarbamate]	> 6.00
CCC(CC)OC(=O)Nc1cccc(-c2ccnc3c(C(=O)c4cccs4)cnn23)c1 [Example 186, 1-ethylpropyl 3-[3-(thien-2-ylcarbonyl)pyrazolo[1,5-a]pyrimidin-7-yl]phenylcarbamate]	> 6.00
CCNC(=O)Nc1cccc(-c2ccnc3c(C(=O)c4cccs4)cnn23)c1 [Example 5, N-ethyl-N′-{3-[3-(thien-2-ylcarbonyl)pyrazolo[1,5-a]pyrimidin-7-yl]phenyl}urea]	> 6.00
O=C(CNC(=O)C1CCC1)Nc1cccc(-c2ccnc3c(C(=O)c4cccs4)cnn23)c1 [Example 127, N-[2-oxo-2-({3-[3-(thien-2-ylcarbonyl)pyrazolo[1,5-a]pyrimidin-7-yl]phenyl}amino)ethyl]cyclobutanecarboxamide]	4.30 to 5.00
O=C(Nc1ccccc1)Nc1cccc(-c2ccnc3c(C(=O)c4cccs4)cnn23)c1 [Example 1, N-phenyl-N′-{3-[3-(thien-2-ylcarbonyl)pyrazolo[1,5-a]pyrimidin-7-yl]phenyl}urea]	> 6.00
